Results reported in patent US20250195521A1 (Revolution Medicines, Inc., priority 2020, published 2025).
“And” between values parts separate entries of the source, which are not always exact repeats. Identical values can stand only once. Like-named read-outs stand apart in the source and are kept apart here.

How the values were obtained:
[1] = tested on: K-Ras G12C (NCI-H358 cells); assay: Potency assay: pERK in NCI-H358 cells; assay type: cell-based, human; conditions: Homo sapiens; NCI-H358 cells, 4 hours; read-out: pERK EC50 (H358 KRAS G12C)
How it was run: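 Cells plated the day before were exposed for 4 h at 37° C, 5% CO2 to a 10-point, 3-fold DMSO dilution series (10 mM top stock), in duplicate. Phospho-ERK was read by AlphaLISA SureFire Ultra or by In-Cell Western with DRAQ5 DNA stain, and IC50 came from a 4-parameter sigmoidal fit.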

[2] = tested on: NCI-H358 cells (K-Ras G12C); assay: CellTiter-Glo cell viability, NCI-H358; assay type: cell-based, human; conditions: K-Ras G12C, 5-day treatment, read-out: H358 Cell Viability IC50
How it was run: (§1)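 Cells seeded, compound dispensed straight into wells, 5-day exposure. Plates brought to room temperature ~30 min, CellTiter-Glo luminescence measured. Normalized to DMSO (%), 4-parameter logistic fit.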

NRAS G12C = NRAS G12C (Homo sapiens (Human), UniProt P01111+P62937, G12C); assay: Ras-Raf disruption/FRET/MOA assay (BRAF RBD, Cyclophilin A); assay type: biochemical; conditions: read-out: NRAS G12C FRET data IC50
How it was run: (§2)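 TR-FRET readout: anti-His Eu-W1024 (10 nM) and anti-GST allophycocyanin (50 nM) added after 3 h, 25° C compound incubation, then 1.5 h more. Decrease in FRET ratio versus DMSO wells marks Ras:RAF disruption; IC50 reported.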

KRAS G12D = KRAS G12D (Homo sapiens (Human), UniProt P01116+P62937, G12D); assay: as above; assay type: biochemical; conditions: read-out: KRAS G12D FRET IC50
How it was run: (§3)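 First, 25 μM Cyclophilin A, 12.5 nM His6-Ras-GMPPNP and 50 nM GST-BRAF RBD are mixed with diluted compound at pH 7.3. Next, 3 h at 25° C. Then 10 nM anti-His Eu-W1024 plus 50 nM anti-GST allophycocyanin for 1.5 h before TR-FRET reading.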

KRAS G13C = KRAS G13C (Homo sapiens (Human), UniProt P01116+P62937, G13C); assay: as above; assay type: biochemical; conditions: read-out: KRAS G13C FRET IC50
How it was run: as §3

KRAS WT = KRAS WT (Homo sapiens (Human), UniProt P01116+P62937); assay: as above; assay type: biochemical; conditions: read-out: KRAS WT FRET data IC50
How it was run: as §3

KRAS G12C = KRAS G12C (Homo sapiens (Human), UniProt P01116+P62937, G12C); assay: as above; assay type: biochemical; conditions: read-out: KRAS G12C FRET IC50
How it was run: as §3

KRAS G12S = KRAS G12S (Homo sapiens (Human), UniProt P01116+P62937, G12S); assay: as above; assay type: biochemical; conditions: read-out: KRAS G12S FRET IC50
How it was run: as §3

KRAS G12V = KRAS G12V (Homo sapiens (Human), UniProt P01116+P62937, G12V); assay: as above; assay type: biochemical; conditions: read-out: KRAS G12V FRET IC50
How it was run: as §3

NRAS WT = NRAS WT (Homo sapiens (Human), UniProt P01111+P62937); assay: as above; assay type: biochemical
How it was run: as §2

NRAS Q61K = NRAS Q61K (Homo sapiens (Human), UniProt P01111+P62937, Q61K); assay: as above; assay type: biochemical
How it was run: as §2

KRAS G13D = KRAS G13D (Homo sapiens (Human), UniProt P01116+P62937, G13D); assay: as above; assay type: biochemical; conditions: read-out: KRAS G13D FRET data IC50
How it was run: as §3

[3] = tested on: Capan-1 cells (K-Ras G12V); assay: CellTiter-Glo cell viability, Capan-1; assay type: cell-based, human; conditions: K-Ras G12V, 5-day treatment, read-out: Capan-1 Cell Viability IC50
How it was run: as §1

NCI-H358 (K-Ras G12C) = assay: CellTiter-Glo cell viability assay, NCI-H358; assay type: cell-based, human; conditions: Homo sapiens, NCI-H358, 120 h, 5-day treatment; read-out: H358 Cell Viability assay data (K-Ras G12C, IC50)
How it was run: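 Cells seeded, compound added directly to plates; day 5: plates to RT ~30 min, CellTiter-Glo luminescence; (sample/avg DMSO)*100; 4-parameter fit.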

[4] = target: K-Ras G12C(GMP-PNP) binding to BRAF RBD (Homo sapiens (Human), UniProt P01116+P62937, G12C); assay: Disruption of BRAF RBD interaction with K-Ras (FRET / MOA assay), K-Ras G12C; assay type: biochemical; conditions: read-out: KRAS G12C FRET IC50
How it was run: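 Cpd 10-pt 3-fold dilution, top 30 μM final; Ras/CypA/BRAF RBD mix 3 h, 25° C. Add anti-His Eu-W1024 10 nM + anti-GST APC 50 nM final, 1.5 h. Readout TR-FRET ratio decrease vs DMSO → IC50.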

KRAS Q61H = KRAS Q61H (Homo sapiens (Human), UniProt P01116+P62937, Q61H); assay: Ras-Raf disruption/FRET/MOA assay (BRAF RBD, Cyclophilin A); assay type: biochemical
How it was run: as §3

NRAS Q61R = NRAS Q61R (Homo sapiens (Human), UniProt P01111+P62937, Q61R); assay: as above; assay type: biochemical
How it was run: as §2

AsPC-1 (K-Ras G12D) = assay: Potency assay: pERK; assay type: cell-based, human; conditions: Homo sapiens
Experimental: The purpose of this assay is to measure the ability of test compounds to inhibit K-Ras in cells. […] This procedure measures a decrease in cellular pERK in response to test compounds. The procedure described below in NCI-H358 cells is applicable to K-Ras G12C.
NCI-H358 cells were grown and maintained using media and procedures recommended by the ATCC. On the day prior to compound addition, cells were plated in 384-well cell culture plates (40 μl/well) and grown overnight in a 37° C., 5% CO2 incubator. Test compounds were prepared in 10, 3-fold dilutions in DMSO, with a high concentration of 10 mM. On the day of assay, 40 nL of test compound was added to each well of cell culture plate using an Echo550 liquid handler (LabCyte®). Concentrations of test compound were tested in duplicate. After compound addition, cells were incubated 4 hours at 37° C., 5% CO2. Following incubation, culture medium was removed and cells were washed once with phosphate buffered saline.
In some experiments, cellular pERK level was determined using the AlphaLISA SureFire Ultra p-ERK1/2 Assay Kit (PerkinElmer). Cells were lysed in 25 μL lysis buffer, with shaking at 600 RPM at room temperature. Lysate (10 μL) was transferred to a 384-well Opti-plate (PerkinElmer) and 5 μL acceptor mix was added. After a 2-hour incubation in the dark, 5 μL donor mix was added, plate was sealed, and incubated 2 hours at room temperature. Signal was read on an Envision plate reader (PerkinElmer) using standard AlphaLISA settings. Analysis of raw data was carried out in Excel (Microsoft) and Prism (GraphPad). Signal was plotted vs. the decadal logarithm of compound concentration, and IC50 was determined by fitting a 4-parameter sigmoidal concentration response model.
In other experiments, cellular pERK was determined by In-Cell Western. Following compound treatment, cells were washed twice with 200 μL tris buffered saline (TBS) and fixed for 15 minutes with 150 μL 4% paraformaldehyde in TBS. Fixed cells were washed 4 times for 5 minutes with TBS containing 0.1% Triton X-100 (TBST) and then blocked with 100 μL Odyssey blocking buffer (LI-COR) for 60 minutes at room temperature. Primary antibody (PERK, CST-4370, Cell Signaling Technology) was diluted 1:200 in blocking buffer, and 50 μL was added to each well and incubated overnight at 4° C. Cells were washed 4 times for 5 minutes with TBST. Secondary antibody (IR-800CW rabbit, LI-COR, diluted 1:800) and DNA stain DRAQ5 (LI-COR, diluted 1:2000) were added and incubated 1-2 hours at room temperature. Cells were washed 4 times for 5 minutes with TBST. Plates were scanned on a Li—COR Odyssey CLx Imager. Analysis of raw data was carried out in Excel (Microsoft) and Prism (GraphPad). Signal was plotted vs. the decadal logarithm of compound concentration, and IC50 was determined by fitting a 4-parameter sigmoidal concentration response model.

Sequence of KRAS WT (P01116 other isoform, or with tags, fused parts or gaps): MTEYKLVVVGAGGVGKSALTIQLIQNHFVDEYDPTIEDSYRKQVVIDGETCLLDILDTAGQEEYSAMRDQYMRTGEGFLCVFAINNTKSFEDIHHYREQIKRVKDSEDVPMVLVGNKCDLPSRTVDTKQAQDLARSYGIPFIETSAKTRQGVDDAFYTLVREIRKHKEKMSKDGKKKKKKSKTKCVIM
Sequence of KRAS WT (P62937 whole entry): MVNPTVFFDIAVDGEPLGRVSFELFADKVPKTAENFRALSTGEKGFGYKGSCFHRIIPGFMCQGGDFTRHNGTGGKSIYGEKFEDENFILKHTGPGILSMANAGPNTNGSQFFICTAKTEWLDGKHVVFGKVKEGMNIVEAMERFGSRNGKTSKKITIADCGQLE
Sequence of KRAS G12C (P01116-2 other isoform, or with tags, fused parts or gaps G12C): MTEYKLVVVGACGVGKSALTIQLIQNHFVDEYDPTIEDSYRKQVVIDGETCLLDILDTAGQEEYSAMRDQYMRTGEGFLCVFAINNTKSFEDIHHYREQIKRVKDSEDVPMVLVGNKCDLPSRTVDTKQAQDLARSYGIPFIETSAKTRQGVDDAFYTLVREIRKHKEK
Sequence of KRAS G12C (P62937 whole entry): as the sequence (P62937 whole entry) above
Sequence of KRAS G12V (P01116 other isoform, or with tags, fused parts or gaps G12V): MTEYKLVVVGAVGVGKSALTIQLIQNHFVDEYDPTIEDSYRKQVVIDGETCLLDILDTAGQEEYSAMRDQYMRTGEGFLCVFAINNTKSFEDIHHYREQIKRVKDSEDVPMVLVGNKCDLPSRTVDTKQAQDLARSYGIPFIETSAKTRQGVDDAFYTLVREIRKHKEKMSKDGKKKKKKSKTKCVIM
Sequence of KRAS G12V (P62937 whole entry): as the sequence (P62937 whole entry) above
Sequence of KRAS G13D (P01116 other isoform, or with tags, fused parts or gaps G13D): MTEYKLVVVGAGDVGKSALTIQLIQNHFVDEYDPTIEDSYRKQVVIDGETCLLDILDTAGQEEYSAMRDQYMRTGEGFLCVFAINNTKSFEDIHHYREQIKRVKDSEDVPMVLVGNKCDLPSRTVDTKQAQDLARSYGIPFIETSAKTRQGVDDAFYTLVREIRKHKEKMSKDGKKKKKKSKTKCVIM
Sequence of KRAS G13D (P62937 whole entry): as the sequence (P62937 whole entry) above
Sequence of KRAS G12D (P01116 other isoform, or with tags, fused parts or gaps G12D): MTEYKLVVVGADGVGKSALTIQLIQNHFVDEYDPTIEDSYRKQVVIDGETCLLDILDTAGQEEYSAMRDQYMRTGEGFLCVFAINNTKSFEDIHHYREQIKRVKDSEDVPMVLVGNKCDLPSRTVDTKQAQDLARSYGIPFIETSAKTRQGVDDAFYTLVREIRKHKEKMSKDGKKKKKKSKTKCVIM
Sequence of KRAS G12D (P62937 whole entry): as the sequence (P62937 whole entry) above
Sequence of KRAS G13C (P01116 other isoform, or with tags, fused parts or gaps G13C): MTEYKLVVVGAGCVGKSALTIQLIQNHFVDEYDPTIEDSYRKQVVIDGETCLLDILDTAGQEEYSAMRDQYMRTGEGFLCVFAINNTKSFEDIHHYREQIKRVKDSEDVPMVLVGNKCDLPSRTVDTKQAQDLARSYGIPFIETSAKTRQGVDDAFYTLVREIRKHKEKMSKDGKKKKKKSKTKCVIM
Sequence of KRAS G13C (P62937 whole entry): as the sequence (P62937 whole entry) above
Sequence of KRAS G12S (P01116 other isoform, or with tags, fused parts or gaps G12S): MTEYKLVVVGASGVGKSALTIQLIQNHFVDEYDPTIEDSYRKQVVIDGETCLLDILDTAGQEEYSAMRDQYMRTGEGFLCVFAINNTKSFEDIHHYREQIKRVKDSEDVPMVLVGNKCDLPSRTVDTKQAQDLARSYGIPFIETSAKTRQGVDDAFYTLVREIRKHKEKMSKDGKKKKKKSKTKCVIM
Sequence of KRAS G12S (P62937 whole entry): as the sequence (P62937 whole entry) above
Sequence of NRAS WT (P01111 whole entry): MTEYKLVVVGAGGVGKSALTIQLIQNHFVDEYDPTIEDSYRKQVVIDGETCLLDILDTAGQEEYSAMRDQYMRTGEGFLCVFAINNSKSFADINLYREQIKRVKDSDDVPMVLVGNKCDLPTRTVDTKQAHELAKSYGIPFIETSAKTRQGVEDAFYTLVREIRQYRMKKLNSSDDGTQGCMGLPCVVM
Sequence of NRAS WT (P62937 whole entry): as the sequence (P62937 whole entry) above
Sequence of NRAS G12C (P01111 whole entry G12C): as the sequence (P01111 whole entry) above, with G12C counted along it
Sequence of NRAS G12C (P62937 whole entry): as the sequence (P62937 whole entry) above
Sequence of NRAS Q61K (P01111 whole entry Q61K): as the sequence (P01111 whole entry) above, with Q61K counted along it
Sequence of NRAS Q61K (P62937 whole entry): as the sequence (P62937 whole entry) above
Sequence of KRAS Q61H (P01116 other isoform, or with tags, fused parts or gaps Q61H): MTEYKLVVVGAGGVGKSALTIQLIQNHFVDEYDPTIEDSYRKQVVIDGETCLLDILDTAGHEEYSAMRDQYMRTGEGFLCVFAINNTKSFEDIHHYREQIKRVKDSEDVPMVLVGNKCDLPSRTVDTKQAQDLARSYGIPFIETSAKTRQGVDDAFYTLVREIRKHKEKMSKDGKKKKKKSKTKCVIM
Sequence of KRAS Q61H (P62937 whole entry): as the sequence (P62937 whole entry) above
Sequence of NRAS Q61R (P01111 whole entry Q61R): as the sequence (P01111 whole entry) above, with Q61R counted along it
Sequence of NRAS Q61R (P62937 whole entry): as the sequence (P62937 whole entry) above
Sequence of K-Ras G12C(GMP-PNP) binding to BRAF RBD (P01116 other isoform, or with tags, fused parts or gaps G12C): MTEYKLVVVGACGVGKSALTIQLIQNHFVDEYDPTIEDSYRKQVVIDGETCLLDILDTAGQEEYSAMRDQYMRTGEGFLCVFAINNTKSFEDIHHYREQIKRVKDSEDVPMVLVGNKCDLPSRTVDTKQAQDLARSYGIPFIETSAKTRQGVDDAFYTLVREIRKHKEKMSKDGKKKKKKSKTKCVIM
Sequence of K-Ras G12C(GMP-PNP) binding to BRAF RBD (P62937 whole entry): as the sequence (P62937 whole entry) above

Structure (SMILES)	EC50 [1]	IC50 ([2]; Homo sapiens, NCI-H358, 120 h)	IC50 (NRAS G12C)	IC50 (KRAS G12D)	IC50 (KRAS G13C)	IC50 (KRAS WT)	IC50 (KRAS G12C)	IC50 (KRAS G12S)	IC50 (KRAS G12V)	IC50 (NRAS WT)	IC50 (NRAS Q61K)	IC50 (KRAS G13D)	IC50 ([3]; Homo sapiens, CAPAN-1, 120 h)	other results
CO[C@@H](C)c1ncccc1-c1c2c3cc(ccc3n1C)-c1cc(O)cc(c1)C[C@H](NC(=O)[C@H](C(C)C)N(C)C(C)=O)C(=O)N1CCC[C@H](N1)C(=O)OCC(C)(C)C2 [Compound A104]	< 5000 nM	1000 to 10000 nM	> 10000 nM	> 10000 nM	1000 to 10000 nM	> 10000 nM	1000 to 10000 nM and > 10000 nM	> 10000 nM	> 10000 nM	1000 to 10000 nM	1000 to 10000 nM	> 10000 nM	> 10000 nM	–
CCn1c(-c2cccnc2[C@H](C)OC)c2c3cc(ccc31)-c1cc(O)cc(c1)C[C@H](NC(=O)[C@H](C(C)C)N(C)C(=O)C1(C(=O)O)CC1)C(=O)N1CCC[C@H](N1)C(=O)OCC(C)(C)C2 [Compound A150]	–	–	1000 to 10000 nM	> 10000 nM	1000 to 10000 nM	1000 to 10000 nM	1000 to 10000 nM	> 10000 nM	> 10000 nM	1000 to 10000 nM	1000 to 10000 nM	> 10000 nM	> 10000 nM	IC50 (NCI-H358 (K-Ras G12C)): < 10 nM; IC50 [4]: 10 to 100 nM
CCn1c(-c2cccnc2[C@H](C)OC)c2c3cc(ccc31)-c1csc(n1)C[C@H](NC(=O)[C@H](C(C)C)N1CCC3(CN(S(C)(=O)=O)C3)C1=O)C(=O)N1CCC[C@H](N1)C(=O)OCC(C)(C)C2 [Compound A234]	–	–	> 10000 nM	> 10000 nM	1000 to 10000 nM	1000 to 10000 nM	–	> 10000 nM	> 10000 nM	1000 to 10000 nM	1000 to 10000 nM	> 10000 nM	> 10000 nM	–
CCn1c(-c2cccnc2[C@H](C)OC)c2c3cc(ccc31)-c1csc(n1)C[C@H](NC(=O)[C@H](C(C)C)N(C)C(=O)N1CC(OC)C1)C(=O)N1CCC[C@H](N1)C(=O)OCC(C)(C)C2 [Compound A354]	–	–	100 to 1000 nM	1000 to 10000 nM	100 to 1000 nM	–	100 to 1000 nM	100 to 1000 nM	100 to 1000 nM	–	100 to 1000 nM	1000 to 10000 nM	–	IC50 [2]: 100 to 1000 nM; IC50 (KRAS Q61H): 100 to 1000 nM; IC50 [3]: 100 to 1000 nM
CCn1c(-c2cccnc2[C@H](C)OC)c2c3cc(ccc31)-c1csc(n1)C[C@H](NC(=O)N1CCC1)C(=O)N1CCC[C@H](N1)C(=O)OCC(C)(C)C2 [Compound A368]	–	100 to 1000 nM	100 to 1000 nM	1000 to 10000 nM	100 to 1000 nM	100 to 1000 nM	100 to 1000 nM	100 to 1000 nM	100 to 1000 nM	100 to 1000 nM	100 to 1000 nM	1000 to 10000 nM	100 to 1000 nM	IC50 (KRAS Q61H): 100 to 1000 nM
CCn1c(-c2cccnc2[C@H](C)OC)c2c3cc(ccc31)-c1csc(n1)C[C@H](NC(=O)[C@H](C(C)C)N(C)C(=O)[C@H]1[C@@H]3CNC[C@@H]31)C(=O)N1CCC[C@H](N1)C(=O)OCC(C)(C)C2 [Compound A448]	< 5000 nM	–	1000 to 10000 nM	1000 to 10000 nM	1000 to 10000 nM	1000 to 10000 nM	1000 to 10000 nM	1000 to 10000 nM	–	1000 to 10000 nM	1000 to 10000 nM	1000 to 10000 nM	> 10000 nM	IC50 (NRAS Q61R): 1000 to 10000 nM
CCn1c(-c2cc(N3CCN(C)CC3)cnc2[C@H](C)OC)c2c3cc(ccc31)-c1csc(n1)C[C@H](NC(=O)[C@H](C(C)C)N(C)C(=O)C1OCC[C@@H]1c1ccccc1)C(=O)N1CCC[C@H](N1)C(=O)OCC(C)(C)C2 (stereo partly drawn) [Compound A583]	< 5000 nM	< 10 nM	10 to 100 nM	–	–	–	–	–	–	100 to 1000 nM	100 to 1000 nM	–	< 10 nM	IC50 (NRAS Q61R): 10 to 100 nM
CCn1c(-c2cccnc2[C@H](C)OC)c2c3cc(ccc31)-c1cc(O)cc(c1)C[C@H](NC(=O)[C@H](C(C)C)N(C)C(=O)CN(C)C(=O)[C@@H]1CN1CCCN1CCCC1=O)C(=O)N1CCC[C@H](N1)C(=O)OCC(C)(C)C2 (stereo partly drawn) [Example 269]	–	–	–	–	–	–	–	–	–	–	–	–	–	EC50 (AsPC-1 (K-Ras G12D); ASPC1, read-out: pERK EC50): < 5000 nM
CCn1c(-c2cccnc2[C@H](C)OC)c2c3cc(ccc31)-c1cc(cc(C(F)F)c1)C[C@H](NC(=O)[C@H](C1CCCC1)N1CC[C@]3(CCN(C(=O)[C@@H]4N[C@@H]4C4CC4)C3)C1=O)C(=O)N1CCC[C@H](N1)C(=O)OCC(C)(C)C2 [Example 318]	–	–	–	–	–	–	–	–	–	–	–	–	–	EC50 (AsPC-1 (K-Ras G12D); ASPC1, AsPC-1 KRAS G12D, read-out: pERK EC50): < 5000 nM
